We go through 1 compound from ChEMBL document CHEMBL5360529, “Pyrimidine derivatives with antitubercular activity” (Eur J Med Chem, 2023).

The target in the test is T1, Thymidylate kinase (Mycobacterium tuberculosis, UniProt P9WKE1).
T1 sequence (P9WKE1 whole entry): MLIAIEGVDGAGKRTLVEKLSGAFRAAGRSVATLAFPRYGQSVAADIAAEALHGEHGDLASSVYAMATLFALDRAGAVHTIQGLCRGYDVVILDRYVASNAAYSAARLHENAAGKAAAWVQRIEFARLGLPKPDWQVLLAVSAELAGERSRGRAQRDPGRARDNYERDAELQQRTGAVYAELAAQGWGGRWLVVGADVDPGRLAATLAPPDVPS
The experiment in a line: Inhibition of recombinant Mycobacterium tuberculosis TMPK overexpressed in Escherichia coli assessed as inhibition constant by spectrophotometric assay.

Molecules are shown by their SMILES.

Consider `Cc1cn(C/C=C\CN2c3cccc4cccc(c34)S2(=O)=O)c(=O)[nH]c1=O`, for which the inhibition constant (Ki) amounted to 0.27 µM.

The Ki is the equilibrium dissociation constant of an inhibitor or competing ligand from its target.
